Columns and labels:
[1] = test system: seborrhea of the scalp; settings: prior art, cited from earlier work; for antiseborrheic effect of known additives: additives to cosmetic preparations
[2] = test system: brown skin surface lipid of the rats; assay: Antiseborrheic effect in animal test: browning of the shaved back of rats (skin surface lipid), visual assessment under double blind conditions; type: in vivo, male Wistar rats; set-up: key to Evaluation method 2 (points difference between righthand and lefthand side) / Evaluation method 3 (difference in intensity of brown shades vs untreated control animals): ++: very large (≥99.9% probability); +: significant (≥95% probability); 0: minimal (95% probability); settings: for reduction of sebum (threshold statement in text): at the concentration tested in the Table
From the text: The antiseborrheic effect was closely studied using the animal tests described in the following: The test animals were male Wistar rats having a body weight of 220 to 230 g at the beginning of the tests. The degree of browning on the shaved back of the rats was visually assessed. Browning is produced by the brown skin surface lipid of the rats. This test is based on the observation that young male and female rats washed with surfactant solution or with a lipid solvent and also male rats systematically treated with oestrogen only have the normal light, pink-colored skin after shaving. At the same time, only comparatively very small quantities of lipids can be extracted from the shaved hairs. In order to assess effectiveness, the test substances in solution in alcohol were each brushed onto half the back of 6 rats. The other half was only treated with the solvent minus active substances. Over the test period of 14 days, the test substances were applied once daily for a total of 9 days. A group of 6 rats which remained completely untreated was used for further control. At the end of the test, the animals were shaved on their back and sides and were visually assessed independently by an examination panel of 6 people under double blind conditions. The first criterion evaluated was whether the majority of examiners correctly recognized the treated side, differentiation being carried out as follows: The second criterion evaluated was the difference between the righthand side and the lefthand side, each examiner having to award 1 point per animal on the following basis: darker side--1 point lighter side--0 point and both sides the same--0.5 point Significant differences between the untreated and treated sides in the second method of evaluation indicate the local effectiveness of a substance. The third criterion evaluated was the difference in intensity between the shades of brown using the following scale: 3 points--dark brown 2 points--medium brown 1 point--light brown 0 points--no browning In the third method of evaluation, total point differences are compared between the untreated control animals and the treated and untreated sides of the test animals, significant differences between the control animals and the treated side of the test animals again indicating the effectiveness of a substance. There is generally also a distinct difference between the untreated and treated sides of the same test animals. However, this difference is not always as clear as that between the control animals and the treated sides, for which there may be various reasons, such as mechanical transfer of substance from one side to the other or solvent influence. The following scheme was used for differentiating the effects according to evaluation methods 2 and 3: The sebum reduction is calculated from the points difference by working out the quotient between the points difference ΔP and the number of points for the control group Pk, and expressing the value obtained in percent. Sebum reduction=(ΔP/Pk ·100 [%] […]

[3] = Conc. 0.5%, topical, once daily, 9 applications in 14 days
[4] = Rattus norvegicus, 336 h, Conc. 0.5%, topical, once daily, 9 applications in 14 days, ΔP/Pk × 100, read-out: Sebum reduction
[5] = Conc. 0.2%, topical, once daily, 9 applications in 14 days
[6] = Rattus norvegicus, 336 h, Conc. 0.2%, topical, once daily, 9 applications in 14 days, ΔP/Pk × 100, read-out: Sebum reduction
[7] = Conc. 1.0%, topical, once daily, 9 applications in 14 days
[8] = Rattus norvegicus, 336 h, Conc. 1.0%, topical, once daily, 9 applications in 14 days, ΔP/Pk × 100, read-out: Sebum reduction
[9] = Conc. 0.1%, topical, once daily, 9 applications in 14 days

In the case of “3,7,11-trimethyl-2,6,10-dodecatrien-1-ol ethyl ether and/or acetate”, the “antiseborrheic effect of known additives” value [1] is listed as “only a very weak antiseborrheic effect”.
For `CCCCCCCCCCCCCCOc1ccc(CO)cc1` [A, 4-tetradecyloxybenzyl alcohol], the “Evaluation method 1 (percentage of examiners noticing an effect, treated side recognized)” value [2, 3] was “++ (100%)”, the “Evaluation method 2 (points difference between righthand and lefthand side)” value [2, 3] was “++ (very large (≥99.9% probability))” and the “Evaluation method 3 (difference in intensity of brown shades vs untreated control animals)” value [2, 3] was “++ (very large (≥99.9% probability))”. The inhibition in vivo at 0.5 % [2, 4] was 97%.
In the case of `CCCCCCCCCCOc1ccc(CO)cc1` [B, 4-decyloxybenzyl alcohol], the “Evaluation method 1 (percentage of examiners noticing an effect, treated side recognized)” value [2, 5] is reported as “++ (100%)”, the “Evaluation method 2 (points difference between righthand and lefthand side)” value [2, 5] is reported as “++ (very large (≥99.9% probability))” and the “Evaluation method 3 (difference in intensity of brown shades vs untreated control animals)” value [2, 5] is reported as “++ (very large (≥99.9% probability))”. The inhibition in vivo at 0.2 % [2, 6] was 95%.
For `OCc1ccccc1` [Benzyl alcohol, reference compound], the “Evaluation method 1 (percentage of examiners noticing an effect, treated side recognized)” value [2, 7] was 0 (≤50%), the “Evaluation method 2 (points difference between righthand and lefthand side)” value [2, 7] was 0 and the “Evaluation method 3 (difference in intensity of brown shades vs untreated control animals)” value [2, 7] was 0. For the same compound, the inhibition in vivo at 1 % [2, 8] was 0%.
With `CCCCCCCCCCOc1ccc(CCO)cc1` [C, 2-(4-decyloxyphenyl)-ethanol] the “Evaluation method 1 (percentage of examiners noticing an effect, treated side recognized)” value [2, 7] was “++ (100%)”, the “Evaluation method 2 (points difference between righthand and lefthand side)” value [2, 7] was “++ (very large (≥99.9% probability))” and the “Evaluation method 3 (difference in intensity of brown shades vs untreated control animals)” value [2, 7] was “++ (very large (≥99.9% probability))”. For the same compound, the inhibition in vivo at 1 % [2, 8] was 56% and the “reduction of sebum (threshold statement in text)” value (“reduction of sebum” below) [2] was “at least 50%”.
With `CCCCCCCCCCCCOc1ccc(CO)cc1` [D, 4-dodecyloxybenzyl alcohol] the “Evaluation method 1 (percentage of examiners noticing an effect, treated side recognized)” value [2, 9] was “++ (100%)”, the “Evaluation method 2 (points difference between righthand and lefthand side)” value [2, 9] was “++ (very large (≥99.9% probability))” and the “Evaluation method 3 (difference in intensity of brown shades vs untreated control animals)” value [2, 9] was “++ (very large (≥99.9% probability))”. The inhibition in vivo at 0.1 % ([2]; Rattus norvegicus, 336 h, Conc. 0.1%, topical, once daily, 9 applications in 14 days, ΔP/Pk × 100, read-out: Sebum reduction) was 88%.
For `CCCCCCOc1ccc(CO)cc1` [E, 4-hexyloxybenzyl alcohol], the “Evaluation method 1 (percentage of examiners noticing an effect, treated side recognized)” value [2, 5] was “++ (100%)”, the “Evaluation method 2 (points difference between righthand and lefthand side)” value [2, 5] was “++ (very large (≥99.9% probability))” and the “Evaluation method 3 (difference in intensity of brown shades vs untreated control animals)” value [2, 5] was “++ (very large (≥99.9% probability))”. It also gave an inhibition in vivo at 0.2 % [2, 6] of 92%.
With `CCCCCCCCOc1ccc(CO)cc1` [F, 4-octyloxybenzyl alcohol] the “Evaluation method 1 (percentage of examiners noticing an effect, treated side recognized)” value [2, 5] was “++ (100%)”, the “Evaluation method 2 (points difference between righthand and lefthand side)” value [2, 5] was “++ (very large (≥99.9% probability))” and the “Evaluation method 3 (difference in intensity of brown shades vs untreated control animals)” value [2, 5] was “++ (very large (≥99.9% probability))”. The inhibition in vivo at 0.2 % [2, 6] was 95%.
For `CCCCCCCCCCOc1ccccc1CO` [G, 2-decyloxybenzyl alcohol], the “Evaluation method 1 (percentage of examiners noticing an effect, treated side recognized)” value [2, 3] was “++ (100%)”, the “Evaluation method 2 (points difference between righthand and lefthand side)” value [2, 3] was “++ (very large (≥99.9% probability))” and the “Evaluation method 3 (difference in intensity of brown shades vs untreated control animals)” value [2, 3] was “++ (very large (≥99.9% probability))”. For the same compound, the inhibition in vivo at 0.5 % [2, 4] was 20%.
In the case of `CCCCCCCCCCCCOc1cccc(CO)c1` [H, 3-dodecyloxybenzyl alcohol], the “Evaluation method 1 (percentage of examiners noticing an effect, treated side recognized)” value [2, 3] is reported as “++ (100%)”, the “Evaluation method 2 (points difference between righthand and lefthand side)” value [2, 3] is reported as “++ (very large (≥99.9% probability))” and the “Evaluation method 3 (difference in intensity of brown shades vs untreated control animals)” value [2, 3] is reported as “++ (very large (≥99.9% probability))”. The inhibition in vivo at 0.5 % [2, 4] was 69% and the “reduction of sebum” value [2] was “at least 50%”.
For `CCCCCCCCCCCCCCOc1cccc(CO)c1` [I, 3-tetradecyloxybenzyl alcohol], the “Evaluation method 1 (percentage of examiners noticing an effect, treated side recognized)” value [2, 3] was “++ (100%)”, the “Evaluation method 2 (points difference between righthand and lefthand side)” value [2, 3] was “++ (very large (≥99.9% probability))” and the “Evaluation method 3 (difference in intensity of brown shades vs untreated control animals)” value [2, 3] was “++ (very large (≥99.9% probability))”. For the same compound, the inhibition in vivo at 0.5 % [2, 4] was 22%.
In the case of `CCCCCCCCCCOc1cccc(CO)c1` [K, 3-decyloxybenzyl alcohol], the “Evaluation method 1 (percentage of examiners noticing an effect, treated side recognized)” value [2, 3] is reported as “++ (100%)”, the “Evaluation method 2 (points difference between righthand and lefthand side)” value [2, 3] is reported as “++ (very large (≥99.9% probability))” and the “Evaluation method 3 (difference in intensity of brown shades vs untreated control animals)” value [2, 3] is reported as “++ (very large (≥99.9% probability))”. The inhibition in vivo at 0.5 % [2, 4] was 53% and the “reduction of sebum” value [2] was “at least 50%”.
In the case of `S1SSSSSSS1` [sulfur], the “antiseborrheic effect of known additives” value [1] is listed as “without giving really satisfactory results in regard to efficacy” and the “side effects of known additives” value ([1]; after prolonged use) is listed as “frequently produce side effects after prolonged use”.
In the case of mercury, the “antiseborrheic effect of known additives” value [1] is listed as “without giving really satisfactory results in regard to efficacy”.
